Values joined by “and” are separate entries in the source; they are usually repeats but may differ in a detail not shown here. Identical values can stand only once.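 These data come from cells grown in 96-well plates and exposed to compound for 48 hours at five concentrations. Here, GI50 denotes the concentration required for 50% inhibition of growth. Definition used: TGI = concentration required for complete inhibition of growth.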

In PubChem BioAssay (NCI) one finds TGI and GI50 data, which are given here for 12 compounds.

Test systems include A549 NSCLC; COLO 205 colon; HCC-2998 colon; MCF7 breast; MDA-N; NCI-H23 lung; NCI-H460 lung; OVCAR-4 ovarian; SN12C renal; SW-620 colon; HOP-62 NSCLC; TK-10 renal.
Assay in all cases: NCI-60 cell line screen, 48 h

Turning to `NC1=NN(c2ccccc2)C2(O)c3ccncc3C3=NN(c4ccccc4)C(=O)C132` (stereo unspecified), the TGI in the experiment with A549 NSCLC, in the experiment on COLO 205 colon, with HCC-2998 colon, in the experiment with MCF7 breast, with MDA-N and with NCI-H23 lung was greater than 100 µM each time. Moreover, the TGI with NCI-H460 lung, in the experiment with OVCAR-4 ovarian, in the experiment with SN12C renal and in the experiment with SW-620 colon was greater than 100 µM each time.
For `COC(=O)c1ccccc1/C=C1\Cc2cc(C)cc(C)c2C1=O`, the TGI in the experiment on A549 NSCLC, in the experiment with HCC-2998 colon, with HOP-62 NSCLC, in the experiment on MCF7 breast, in the experiment with MDA-N and in the experiment on NCI-H23 lung was greater than 100 µM in each case. Further, the TGI with NCI-H460 lung, with SN12C renal, with SW-620 colon and in the experiment with TK-10 renal was greater than 100 µM throughout.
For `CCOC(=O)[C@@H]1ON2O[C@H](OC3CCCC3(c3ccccc3)c3ccccc3)C[C@H]3OC(=O)[C@@H]1C32` (stereo partly specified), the TGI with A549 NSCLC is 76.6 µM; in the experiment with COLO 205 colon, greater than 100 µM; in the experiment with HCC-2998 colon, greater than 100 µM; in the experiment with HOP-62 NSCLC, greater than 100 µM; with MCF7 breast, 91.4 µM; in the experiment with MDA-N, greater than 100 µM. The TGI in the experiment on NCI-H23 lung is 65.8 µM; in the experiment on NCI-H460 lung it was greater than 100 µM; in the experiment on SN12C renal it was greater than 100 µM; in the experiment on SW-620 colon it was greater than 100 µM; with TK-10 renal, greater than 100 µM.
Take `CCOC(=O)c1c(-c2ccc(O)c(OC)c2)c(C#N)c(=S)n(C2OC(COC(C)=O)C(OC(C)=O)C(OC(C)=O)C2OC(C)=O)c1-c1ccccc1` (stereo unspecified): the TGI in the experiment with A549 NSCLC, with COLO 205 colon, with HCC-2998 colon, in the experiment with HOP-62 NSCLC, in the experiment with MCF7 breast and in the experiment on MDA-N was greater than 100 µM throughout. Also, the TGI in the experiment with NCI-H23 lung, in the experiment on NCI-H460 lung, in the experiment with OVCAR-4 ovarian, in the experiment with SN12C renal and in the experiment with SW-620 colon was greater than 100 µM each time. In addition, the GI50 with HCC-2998 colon is 35 µM and 90.1 µM; in the experiment on MCF7 breast, 22.4 µM and 63.3 µM.
For `O=c1cc(CBr)c2ccc(O)cc2o1`, the TGI in the experiment with A549 NSCLC was greater than 100 µM; with COLO 205 colon it was greater than 100 µM; in the experiment on HCC-2998 colon, greater than 100 µM; with HOP-62 NSCLC, 50.3 µM; in the experiment with MCF7 breast it was greater than 100 µM; in the experiment with MDA-N, greater than 100 µM. Moreover, the TGI in the experiment on NCI-H23 lung, in the experiment with NCI-H460 lung, in the experiment on SN12C renal, with SW-620 colon and in the experiment on TK-10 renal was greater than 100 µM in each case.
In the case of `CCN(CC)C(=S)SNCc1ccc(S(N)(=O)=O)cc1`, the TGI was 26.3 µM in the experiment with A549 NSCLC; 27.7 µM with COLO 205 colon; greater than 100 µM with HCC-2998 colon; 30.5 µM in the experiment with HOP-62 NSCLC; 29 µM with MDA-N; 44.3 µM with NCI-H23 lung. The TGI in the experiment with NCI-H460 lung was 34.4 µM; in the experiment on OVCAR-4 ovarian, 48.1 µM; in the experiment with SN12C renal, 28.9 µM; in the experiment on SW-620 colon it was greater than 50.1 µM; with TK-10 renal, greater than 66 µM.
Turning to `O=C(O)c1ccccc1C(=O)Nn1cnnc1`, the TGI in the experiment with A549 NSCLC, in the experiment on COLO 205 colon, with HCC-2998 colon, with HOP-62 NSCLC, with MCF7 breast and in the experiment on MDA-N was greater than 100 µM each time. Also, the TGI in the experiment on NCI-H23 lung, with OVCAR-4 ovarian, in the experiment with SN12C renal, with SW-620 colon and in the experiment on TK-10 renal was greater than 100 µM each time.
As to `Cc1nn(-c2ccccc2)c2[nH]c(=S)cnc12`, the TGI in the experiment on A549 NSCLC, with HOP-62 NSCLC, in the experiment with MCF7 breast, in the experiment on MDA-N, in the experiment with NCI-H23 lung and in the experiment on NCI-H460 lung was greater than 100 µM each time. Further, the TGI in the experiment on OVCAR-4 ovarian, in the experiment on SN12C renal, in the experiment on SW-620 colon and with TK-10 renal was greater than 100 µM each time.
On to `COc1ccc2c(c1)CCc1[nH]c3ccccc3c1CCCC2`, for which the TGI in the experiment with A549 NSCLC, with COLO 205 colon, in the experiment with HCC-2998 colon, with HOP-62 NSCLC, in the experiment with MCF7 breast and with MDA-N was greater than 10 µM throughout. Further, the TGI in the experiment on NCI-H23 lung, in the experiment with OVCAR-4 ovarian, in the experiment with SN12C renal, in the experiment with SW-620 colon and with TK-10 renal was greater than 10 µM throughout.
In the case of `O=[N+]([O-])c1ccc2[nH]ncc2c1Cl`, the TGI with A549 NSCLC was greater than 100 µM; with COLO 205 colon it was 28.2 µM; with HCC-2998 colon it was greater than 100 µM; with HOP-62 NSCLC it was greater than 100 µM; in the experiment on MCF7 breast it was greater than 100 µM; in the experiment on MDA-N it was 48.1 µM. In addition, the TGI with NCI-H460 lung is greater than 100 µM; in the experiment on OVCAR-4 ovarian it was 85.5 µM; in the experiment on SN12C renal, greater than 100 µM; in the experiment with SW-620 colon, greater than 100 µM; in the experiment on TK-10 renal, greater than 100 µM.
For the compound `O=C(O)c1ccc(Nc2nc3ccccc3nc2-c2cccs2)cc1`, the TGI with A549 NSCLC, with COLO 205 colon, with HCC-2998 colon, in the experiment on HOP-62 NSCLC, in the experiment with MDA-N and in the experiment on NCI-H23 lung was greater than 100 µM each time. Besides, the TGI in the experiment with NCI-H460 lung, in the experiment on OVCAR-4 ovarian, with SN12C renal, in the experiment on SW-620 colon and in the experiment on TK-10 renal was greater than 100 µM throughout.
In the case of `COc1cc(Nc2cnc3cc(F)c(F)cc3n2)cc(OC)c1`, the TGI with A549 NSCLC was greater than 100 µM; in the experiment on COLO 205 colon it was greater than 100 µM; in the experiment on HOP-62 NSCLC it was greater than 100 µM; in the experiment on MCF7 breast it was greater than 100 µM; in the experiment with MDA-N, greater than 100 µM; in the experiment on NCI-H23 lung it was 91 µM. Further, the TGI in the experiment on NCI-H460 lung, in the experiment on OVCAR-4 ovarian, in the experiment on SN12C renal, with SW-620 colon and with TK-10 renal was greater than 100 µM in each case.
